Data as given in article PMC10377775, “Identification of a Novel ERK5 (MAPK7) Inhibitor, MHJ-627, and Verification of Its Potent Anticancer Efficacy in Cervical Cancer HeLa Cells” (Current Issues in Molecular Biology, 2023).

Experiments:
[1] = molecular target: T1, ERK5 (MAPK7) (Homo sapiens, UniProt Q13164); assay: FRET-based Z'-LYTE in vitro kinase assay, […] ng ERK5 (ab126913), […] ATP; type: biochemical
[2] = molecular target: T1, ERK5 (MAPK7); assay: FRET-based Z'-LYTE in vitro kinase assay, single concentration ([…]), positive control; type: biochemical

T1 sequence (Q13164 2-816): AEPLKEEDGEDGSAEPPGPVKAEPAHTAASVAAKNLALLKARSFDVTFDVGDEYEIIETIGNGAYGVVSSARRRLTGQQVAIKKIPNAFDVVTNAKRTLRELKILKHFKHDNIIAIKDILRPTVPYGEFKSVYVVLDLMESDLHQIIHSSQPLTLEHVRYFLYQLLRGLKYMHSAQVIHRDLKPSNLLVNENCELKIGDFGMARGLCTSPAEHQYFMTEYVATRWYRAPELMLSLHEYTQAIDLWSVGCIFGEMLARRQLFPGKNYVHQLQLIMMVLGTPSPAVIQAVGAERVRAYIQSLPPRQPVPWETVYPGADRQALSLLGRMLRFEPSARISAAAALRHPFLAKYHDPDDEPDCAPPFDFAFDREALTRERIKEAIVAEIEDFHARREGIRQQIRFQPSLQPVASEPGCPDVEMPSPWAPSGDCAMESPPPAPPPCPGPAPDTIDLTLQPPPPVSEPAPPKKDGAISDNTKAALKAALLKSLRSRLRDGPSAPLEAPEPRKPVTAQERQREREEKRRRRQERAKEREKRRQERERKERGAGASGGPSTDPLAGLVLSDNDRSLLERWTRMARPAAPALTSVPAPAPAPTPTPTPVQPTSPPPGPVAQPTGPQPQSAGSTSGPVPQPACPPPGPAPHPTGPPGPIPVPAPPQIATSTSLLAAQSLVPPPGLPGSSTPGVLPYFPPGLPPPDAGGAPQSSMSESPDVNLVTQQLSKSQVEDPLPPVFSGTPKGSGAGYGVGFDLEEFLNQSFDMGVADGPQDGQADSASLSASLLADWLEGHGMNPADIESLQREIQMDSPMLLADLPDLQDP

Molecule CC(C)CCOc1cc(C(=O)C[n+]2cn(CCC(C)C)c3ccccc32)c(OCCC(C)C)c2ccccc12 [MHJ-627, 3-(2-(1,4-bis(isopentyloxy)naphthalen-2-yl)-2-oxoethyl)-1-isopentyl-1H-benzo[d]imidazol-3-ium bromide] has an IC50 [1] of 910 nM.

CCOc1cc(N2CCC(O)CC2)ccc1Nc1ncc2c(n1)N(C)c1ccccc1C(=O)N2C [XMD8-92] gave an inhibition at 5 µM [2] of 56%.
